Activity calls are given as the source filed them. The calls are words filed in the database; no cut-off is given here.
How the values were obtained:
[1] = target: 5-hydroxytryptamine receptor 4 (Rattus norvegicus) (UniProt Q62758); assay: Antagonist activity against 5-HT4 receptor mediated relaxation of rat carbachol contracted esophageal muscularis mucosae; format: functional
Sus scrofa [2] = assay: Antagonism of 5-HT-induced tachycardia in anesthetized, vagotomized Yucatan micropigs at 3-3000 ug/kg dose administered intraduodenally; no effect; format: functional, organism-based
[3] = Compound was tested for its half-life period at an intravenous dose of 30 ug/kg; format: ADME, organism-based, Sus scrofa; conditions: pig, in vivo, 0.03 mg/kg
Sus scrofa [4] = assay: Antagonism of 5-HT-induced tachycardia in anesthetized, vagotomized Yucatan micropigs at 0.1-300 ug/kg dose administered intravenously; format: functional; conditions: iv, read-out: ID50 (the source's name)
Sus scrofa [5] = assay: Antagonism of 5-HT-induced tachycardia in anesthetized, vagotomized Yucatan micropigs at 1-300 ug/kg dose administered intravenously; format: functional; conditions: iv, read-out: ID50 (the source's name)
Sus scrofa [6] = assay: Antagonism of 5-HT-induced tachycardia in anesthetized, vagotomized Yucatan micropigs at 30-3000 ug/kg dose administered intraduodenally; format: functional; conditions: intraduodenal, read-out: ID50 (the source's name)

5-hydroxytryptamine receptor 4 (Rattus norvegicus), sequence (Q62758 whole entry): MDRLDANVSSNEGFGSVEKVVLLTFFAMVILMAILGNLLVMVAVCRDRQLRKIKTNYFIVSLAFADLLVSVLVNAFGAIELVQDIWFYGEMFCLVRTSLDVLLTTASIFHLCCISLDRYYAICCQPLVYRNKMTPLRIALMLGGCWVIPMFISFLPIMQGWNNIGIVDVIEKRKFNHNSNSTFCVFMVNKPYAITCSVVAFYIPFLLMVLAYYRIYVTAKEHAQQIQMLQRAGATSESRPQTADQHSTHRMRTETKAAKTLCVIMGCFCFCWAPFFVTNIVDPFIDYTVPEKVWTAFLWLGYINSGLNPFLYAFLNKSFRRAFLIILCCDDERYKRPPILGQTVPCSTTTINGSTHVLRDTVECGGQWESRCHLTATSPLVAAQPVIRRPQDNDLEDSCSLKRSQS

| Compound | pKb [1] | ID50 (Sus scrofa [2]) | half-life [3] [h] | ED50 (Sus scrofa [4]) [µg/kg] | ED50 (Sus scrofa [5]) [µg/kg] | ED50 (Sus scrofa [6]) [µg/kg] |
| --- | --- | --- | --- | --- | --- | --- |
| CCCCN1CCC(COC(=O)c2cc(Cl)c(N)c3c2OCCO3)CC1 | 10.3 | inactive | < 2.5 | 8 |  |  |
| CCCCN1CCC(CCC(=O)c2cc(Cl)c(N)c3c2OCCO3)CC1 | 9.9 |  |  |  |  |  |
| Nc1c(Cl)cc(C(=O)CCC2CCN(CCCc3ccccc3)CC2)c2c1OCCO2 | 9.6 |  |  |  |  |  |
| COc1cc(COc2cc(N)c(Cl)cc2C(=O)CCC2CCN(CCNS(C)(=O)=O)CC2)cc(OC)c1 | 9.1 |  | 5.25 |  | 4.68 | 245 |

Source: ChEMBL document CHEMBL1153669, “Rs-100235: A high affinity 5-HT4 receptor antagonist” (Bioorg Med Chem Lett, 1995)
